Assay in all cases: DTP human tumour cell line panel, 48 h
In test [1] the test system is SF-539 CNS.
For test [2], the system named is A498 renal.
The test system of test [3] is CCRF-CEM leukemia.
In test [4] the test system is KM12 colon.
Test [5] deals with NCI-H460 lung.
The test system of test [6] is T-47D breast.
Test [7] relates to HOP-92 NSCLC.
Test [8] deals with SF-268 CNS.
In test [9] the test system is HCT-15 colon.
Test [10] deals with SF-295 CNS.

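Where inhibition never reached the appropriate level, the endpoint shown equals the highest concentration tested. Otherwise, values were interpolated linearly from a five-concentration, 48-hour dose response in 96-well plates. The concentration for full growth arrest is given as TGI.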

As a reminder, the TGI is the concentration giving total growth inhibition. Lower therefore signals more potent growth arrest. Consider `Cc1ccc(S(=O)(=O)NN=C2CCCCCCCCCCC2)cc1`, for which the TGI in test [1], in test [2], in [3], in test [4], in test [5] and in test [6] was above 100 µM in each case. For the same compound, the TGI in test [7], in [8], in [9] and in test [10] was above 100 µM each time.

Consider `CCCCC(=O)Nc1ccc2cc(C(=O)OC)c(ON3C(=O)c4ccccc4C3=O)nc2n1`, for which the TGI in test [1] was 43.5 µM; in test [2], above 100 µM; in [3], above 100 µM; in [4], above 100 µM; in [5] it was 51.4 µM; in [6] it was above 100 µM. For the same compound, the TGI in test [7] was 65.3 µM; in test [8], 81.2 µM; in test [9], above 100 µM; in test [10], above 100 µM.

Consider `CC(C)(C)c1ccc(-c2nc3ccc([N+](=O)[O-])cc3c(=O)o2)cc1`, for which the TGI in [1] is 43.9 µM; in [2] it was 73.9 µM; in test [3], 58.2 µM; in test [4], 69.9 µM; in test [5], above 100 µM; in [6], above 100 µM. In addition, the TGI in test [7] was 55.2 µM; in test [8], above 100 µM; in test [9], 73.4 µM; in [10], 76.4 µM.

As for `O=C(CC(=O)N1N=C(N2CCCCC2)CC1c1ccccc1)Nc1ccc(Cl)cc1` (stereo not drawn), the TGI in [2], in [3], in [4], in test [5], in test [6] and in [7] was above 100 µM each time. The TGI in [8], in [9] and in [10] was above 100 µM in each case.

On to `CN(NC(=O)CCCl)C1=NCCN1`, for which the TGI in test [1], in test [2], in test [3], in [4], in test [5] and in test [6] was above 100 µM throughout. For the same compound, the TGI in test [7], in test [8], in test [9] and in [10] was above 100 µM each time.

As to `CC(C)NC(=O)CN1CCN(C2=CC(=O)c3c(O)ccc(O)c3C2=O)CC1`, the TGI in test [1] was 30.5 µM; in [2], 46 µM; in test [3], above 95.2 µM; in test [4] it was 33.2 µM; in test [5], 29.1 µM; in test [6], 24.7 µM. Besides, the TGI in test [7] worked out at 38.3 µM; in test [8], 53.1 µM; in [9] it was 45.3 µM; in test [10], 32.6 µM.

For `CN(C)c1ccc(/C=C(\C#N)C(N)=C(C#N)C#N)cc1`, the TGI in test [1], in test [2], in [3], in [4], in test [5] and in test [6] was above 100 µM each time. Also, the TGI in test [7], in test [8], in test [9] and in [10] was above 100 µM in each case.

In the case of `COCC1OC(OC2C3=C(C(C)C)CCC3(C)/C=C3\C(CCC3(O)COC)C(C)C2O)C(O)C2OC3OC12OC3(C)C1CO1` (stereo not drawn), the TGI in [1] is above 100 µM; in test [2] it was above 100 µM; in test [3], 59.6 µM; in test [4], above 100 µM; in test [5], above 100 µM; in test [6], above 100 µM. Besides, the TGI in test [7] was above 100 µM; in test [8], 68.4 µM; in test [9], above 100 µM; in test [10], above 100 µM.

Take `N#CCCN(CCC#N)c1ccc(C(N=Nc2ccccc2)=Nc2ccccc2)cc1`: the TGI in [1], in [2], in test [3], in [4], in test [5] and in [6] was above 100 µM in each case. Further, the TGI in test [7], in test [8], in test [9] and in [10] was above 100 µM each time.

For `CC1=C2C(=O)[C@H]3[C@@H](CC=C4C[C@@H](O)CC[C@@]43C)[C@@H]2CC[C@]12O[C@@H]1C[C@H](C)CN[C@H]1[C@H]2C`, the TGI is above 61.6 µM in test [1]; above 57.9 µM in [2]; above 100 µM in [3]; above 83.4 µM in test [4]; above 65 µM in test [5]; above 100 µM in test [6]. The TGI in test [7] is 26.6 µM; in test [8] it was above 66.7 µM; in [9], above 81.3 µM; in test [10], above 58.7 µM.

With `C[C@]12CC[C@@H]3c4cc(OCC(F)(F)F)c(O)cc4C(=O)C[C@H]3[C@@H]1CC[C@@H]2O`, the TGI in test [1] was 22.6 µM; in test [2], above 100 µM; in test [3], above 66.3 µM; in test [4] it was above 64.4 µM; in [5], above 100 µM; in test [6] it was above 100 µM. Moreover, the total growth inhibition concentration (TGI) in test [7] was above 100 µM; in test [8] it was above 100 µM; in test [9], above 100 µM; in test [10], 15.4 µM.

Turning to `COc1ccc2nc3ccc(OC)cc3c(S(=O)(=O)Cc3ccc([N+](=O)[O-])cc3)c2c1`, the TGI in [1], in test [2], in test [3], in test [4], in test [5] and in test [6] was above 100 µM throughout. Besides, the TGI in [7], in test [8], in test [9] and in test [10] was above 100 µM throughout.

In the case of `Clc1ccc(Oc2ccc(N=Cc3ccc(Cl)cc3Cl)cc2Cl)cc1`, the TGI in test [1] is 65.1 µM; in test [3], 44.8 µM; in [4], above 100 µM; in test [5] it was above 100 µM; in [6] it was above 100 µM; in [7] it was above 100 µM. The TGI in [8], in [9] and in test [10] was above 100 µM in each case.

The values are drawn from PubChem BioAssay (NCI).
